Data published in ChEMBL document CHEMBL1201862, “PubChem BioAssay data set” (2004).
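Following 48 hours of exposure in 96-well plates, responses at five concentrations were used to interpolate endpoints linearly. At the GI50, growth is halved.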 The source made the active and inactive calls. Rule as the data show it: active = GI50 up to about 1.1 µM and inactive = higher.

How the values were obtained:
Assay in all cases: growth of human tumour cells (NCI), 48 h
DMS-273 = system: DMS-273
HOP-18 = system: HOP-18
LXFL 529 = system: LXFL 529
M19-MEL = system: M19-MEL
RXF 631 = system: RXF 631
SNB-78 = system: SNB-78
XF498 = system: XF498
DMS-114 = system: DMS-114

Measured: GI50

CCOC(=O)C=C1CCN(C(=O)c2ccccc2)CC1
inactive: DMS-273 > 100 µM | HOP-18 > 100 µM | LXFL 529 > 100 µM | M19-MEL > 100 µM | RXF 631 > 100 µM | SNB-78 > 100 µM | XF498 > 100 µM

C/C(=C\CNc1ncnc2c1ncn2C1CCCCO1)COP(=O)(O)O (stereo not given)
inactive: DMS-114 > 100 µM | DMS-273 > 100 µM | HOP-18 > 100 µM | LXFL 529 > 100 µM | M19-MEL > 100 µM | RXF 631 > 100 µM | SNB-78 > 100 µM | XF498 > 100 µM

COC(=O)C(C(=O)C(=O)Nc1ccccc1OC)c1csc(-n2nc(-c3ccccc3)cc2-c2ccccc2)n1 (stereo not given)
inactive: DMS-114 49.5 µM | DMS-273 > 100 µM | HOP-18 14.8 µM | LXFL 529 > 100 µM | M19-MEL > 100 µM | RXF 631 > 100 µM | SNB-78 > 100 µM | XF498 > 100 µM

O=[N+]([O-])c1cccnc1S(=O)(=O)c1ccccc1
inactive: DMS-114 3.18 µM | DMS-273 7.87 µM | HOP-18 12.9 µM | LXFL 529 2.4 µM | M19-MEL 13.5 µM | RXF 631 2.86 µM | SNB-78 11.2 µM | XF498 13.1 µM

C=C=C(CC)C(C(=O)OC)N(CC)CC (stereo not given)
inactive: DMS-114 > 100 µM | HOP-18 > 100 µM | LXFL 529 > 100 µM | M19-MEL > 100 µM | RXF 631 > 100 µM | SNB-78 > 100 µM | XF498 > 100 µM

O=C(O)Cn1c(=O)[nH]c(=O)c2[nH]cnc21
inactive: DMS-114 > 100 µM | DMS-273 > 100 µM | HOP-18 > 100 µM | LXFL 529 > 100 µM | M19-MEL > 100 µM | RXF 631 > 100 µM | SNB-78 > 100 µM

COc1cc2c(c(OC)c1)C1(CC(CC#N)C2)SCCS1 (stereo not given)
inactive: DMS-114 > 100 µM | DMS-273 > 100 µM | HOP-18 > 100 µM | LXFL 529 > 100 µM | M19-MEL > 100 µM | RXF 631 > 100 µM | SNB-78 > 100 µM

CC(O)C(N/C=C1/N=C(c2ccccc2)OC1=O)C(=O)O (stereo not given)
inactive: DMS-114 > 100 µM | DMS-273 > 100 µM | HOP-18 > 100 µM | LXFL 529 > 100 µM | M19-MEL > 100 µM | RXF 631 > 100 µM | SNB-78 > 100 µM | XF498 > 100 µM

N=C(N)NNC(=O)CCn1[nH]c(=O)c(Cl)c(Cl)c1=O
inactive: DMS-114 > 100 µM | DMS-273 > 100 µM | HOP-18 > 100 µM | LXFL 529 > 100 µM | M19-MEL > 100 µM | RXF 631 > 100 µM | XF498 > 100 µM
